The values below come from US11105794B2, “In vitro nephrotoxicity screening assay” (Hoffmann-La Roche Inc., priority 2016, dated 2021).

For one data set, the system named is PTEC-TERT1 cells. As to the kind of experiment: EGF assay, supernatant of PTEC-TERT1 cells. The note with it: for Toxicity grade: from EGF, assay window saline vs toxic reference compound 4-1.
Data set [1] has as its system Primary human hepatocytes. As to the kind of experiment: EGF assay, culture media of primary human hepatocytes.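 Also: values as percent of saline vehicle control.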 As to conditions: 10 ng/ml EGF in medium. The class given is cell-based. As for the experimental part:
Cryopreserved human hepatocytes were suspended in William's Medium E (WME) without phenol red (Sigma W-1878) supplemented with 10% fetal calf serum, penicillin (100 U/ml), streptomycin (0.1 mg/ml) at a density of approx. 1×10^6 cells/ml and seeded into collagen-coated 96-well plates (Becton Dickinson AG, Allschwil, Switzerland) at a density of 0.4×10^5 cells/well. Cells were pre-cultured for 3 to 4 h allowing for attachment to cell culture plates before start of treatment with oligonucleotides.
Before oligonucleotide treatment the seeding medium was replaced by 90 μl of serum free WME.
The total volume of each well was 100 μl. PBS served as vehicle control.
Human primary hepatocytes were cultivated as described in the “Materials and methods” section with addition of 10 ng/ml of EGF to the medium. At confluence the cells were treated with oligonucleotide as described in the “Materials and methods” section, in concentrations of 10 or 100 μM.
The medium was obtained at day 3, and the EGF level was measured according to the assay described in the “Materials and methods” section.

The mark [2] stands for this setting: PTEC-TERT1, 6 days, 10 μM oligonucleotide (Table 7).
Setting [3] is: PTEC-TERT1, 6 days, 30 μM oligonucleotide (Table 7).
The mark [4] stands for this setting: PTEC-TERT1, Day 6, 10 μM (Table 4).
Setting [5] is: PTEC-TERT1, Day 6, 30 μM (Table 4).
[6] abbreviates: PTEC-TERT1, Day 6, 100 μM (Table 4).

Protocol for PTEC-TERT1 cells: Prior to treatment with oligonucleotides the PTEC-TERT1 were seeded into collagen I-coated 96-well plates (Corning, 356407) at a density of 40 000 and 20 000 cells/well respectively in PTEC medium and grown until confluence.
Oligonucleotides were dissolved in PBS and added to the cell culture at the given concentration, such as 10, 30 or 100 μM. The total volume of each well was 100 μl. PBS served as vehicle control.
When extra cellular markers, like EGF and KIM-1, were analyzed following the oligonucleotide treatment the medium was collected and stored at −20° C. until further analysis. […] The collected medium was stored at −20° C.
For analysis of human EGF, cell supernatants were thawed on ice, diluted 1:2 and 1:10 in sample dilution buffer (BioRad catalog # M60-009RDPD) and analyzed by Luminex®-based ELISA using human EGF beads (Bio-Plex Pro™ Human Cancer Biomarker Panel 2 EGF Set#171BC603M), or followed by analysis using the Bio-Plex® 200 Systems (BioRad) according to the manufacturer's instructions. Data are reported as mean concentrations and standard deviations of triplicate wells.

For “ACTgcrtttcrcacrtCTG (antisense ACTGCTTTCCACTCTG; LNA gapmer, stereodefined phosphorothioates, chemistry not fully specified) [Compound 8-3]”, the EGF in the data set on PTEC-TERT1 cells (setting [2]) is 869 % saline; in the data set with PTEC-TERT1 cells (setting [3]), 3416 % saline. Further, the Toxicity grade with PTEC-TERT1 cells (PTEC-TERT1, 6 days, 10 μM) is recorded as 32; in the data set with PTEC-TERT1 cells (PTEC-TERT1, 6 days, 30 μM), 46.

Regarding “ACTgcstttcscacstCTG (antisense ACTGCTTTCCACTCTG; LNA gapmer, stereodefined phosphorothioates, chemistry not fully specified) [Compound 8-2]”, the EGF in the data set with PTEC-TERT1 cells (setting [2]) stood at 5723 % saline; in the data set on PTEC-TERT1 cells (setting [3]) it was 25199 % saline. Further, the Toxicity grade with PTEC-TERT1 cells (PTEC-TERT1, 6 days, 10 μM) is given as 219; in the data set with PTEC-TERT1 cells (PTEC-TERT1, 6 days, 30 μM) it was 347.

With “ATTgcattgtttcCGT (ATTGCATTGTTTCCGT; chemistry not given here) [Compound 18-1]”, the EGF in the data set with PTEC-TERT1 cells (setting [4]) turned out to be 223 % saline; with PTEC-TERT1 cells (setting [5]), 203 % saline; with PTEC-TERT1 cells (setting [6]), 290 % saline.

In the case of “CAAaggaaacacaCAT (CAAAGGAAACACACAT; chemistry not given here) [Compound 6-1]”, the EGF with PTEC-TERT1 cells (setting [4]) turned out to be 78 % saline; in the data set on PTEC-TERT1 cells (setting [5]), 90 % saline; with PTEC-TERT1 cells (setting [6]), 118 % saline.

Turning to “CAAatgctgaaacTAT (CAAATGCTGAAACTAT; chemistry not given here) [Compound 7-1]”, the results for the EGF in the data set on PTEC-TERT1 cells (setting [4]), in the data set with PTEC-TERT1 cells (setting [5]) and in the data set on PTEC-TERT1 cells (setting [6]) were 37 % saline, 40 % saline and 67 % saline, respectively.

As to “CACattccttgctCTG (CACATTCCTTGCTCTG; chemistry not given here) [Compound 10-1]”, the EGF is listed as 145 % saline in data set [1] (day 3, 10 μM); 574 % saline in data set [1] (day 3, 100 μM); 305 % saline in the data set on PTEC-TERT1 cells (setting [2]); 1283 % saline with PTEC-TERT1 cells (setting [3]); 73 % saline in the data set on PTEC-TERT1 cells (setting [4]); 330 % saline in the data set on PTEC-TERT1 cells (setting [5]). For the same substance, in the data set on PTEC-TERT1 cells (setting [6]), the EGF is reported as 783 % saline. Besides, the Toxicity grade with PTEC-TERT1 cells (PTEC-TERT1, 6 days, 10 μM) was found to be 11; in the data set with PTEC-TERT1 cells (PTEC-TERT1, 6 days, 30 μM) it was 17.

Regarding “CACattrccttrgctrCTrG (antisense CACATTCCTTGCTCTG; LNA gapmer, stereodefined phosphorothioates, chemistry not fully specified) [Compound 10-3]”, the results for the EGF in the data set with PTEC-TERT1 cells (setting [2]) and with PTEC-TERT1 cells (setting [3]) were 248 % saline and 1740 % saline, respectively. Besides, the Toxicity grade in the data set with PTEC-TERT1 cells (PTEC-TERT1, 6 days, 10 μM) was found to be 9; in the data set on PTEC-TERT1 cells (PTEC-TERT1, 6 days, 30 μM), 23.

With “CACattrcrcttrgrctCTG (antisense CACATTCCTTGCTCTG; LNA gapmer, stereodefined phosphorothioates, chemistry not fully specified) [Compound 10-5]”, the results for the EGF in the data set on PTEC-TERT1 cells (setting [2]) and in the data set on PTEC-TERT1 cells (setting [3]) were 369 % saline and 1069 % saline, respectively. Also, the Toxicity grade in the data set with PTEC-TERT1 cells (PTEC-TERT1, 6 days, 10 μM) was 13; in the data set on PTEC-TERT1 cells (PTEC-TERT1, 6 days, 30 μM), 14.

Regarding “CACattsccttsgctsCTsG (antisense CACATTCCTTGCTCTG; LNA gapmer, stereodefined phosphorothioates, chemistry not fully specified) [Compound 10-2]”, the EGF with PTEC-TERT1 cells (setting [2]) is recorded as 93 % saline; with PTEC-TERT1 cells (setting [3]), 156 % saline. The Toxicity grade in the data set with PTEC-TERT1 cells (PTEC-TERT1, 6 days, 10 μM) was 3; in the data set with PTEC-TERT1 cells (PTEC-TERT1, 6 days, 30 μM), 1.

As for “CACattscscttsgsctCTG (antisense CACATTCCTTGCTCTG; LNA gapmer, stereodefined phosphorothioates, chemistry not fully specified) [Compound 10-4]”, the EGF in the data set on PTEC-TERT1 cells (setting [2]) came to 60 % saline; with PTEC-TERT1 cells (setting [3]), 157 % saline. The Toxicity grade in the data set on PTEC-TERT1 cells (PTEC-TERT1, 6 days, 10 μM) was determined as 1; in the data set with PTEC-TERT1 cells (PTEC-TERT1, 6 days, 30 μM), 1.

“CATtgcattgttTCCG (CATTGCATTGTTTCCG; chemistry not given here) [Compound 19-2]”: the EGF is reported as 370 % saline in the data set with PTEC-TERT1 cells (setting [4]), 606 % saline in the data set on PTEC-TERT1 cells (setting [5]) and 770 % saline with PTEC-TERT1 cells (setting [6]).

As to “CATtgcattgtttCCG (CATTGCATTGTTTCCG; chemistry not given here) [Compound 19-1]”, the results for the EGF in the data set on PTEC-TERT1 cells (setting [4]), in the data set on PTEC-TERT1 cells (setting [5]) and in the data set with PTEC-TERT1 cells (setting [6]) were 317 % saline, 310 % saline and 413 % saline, respectively.

Regarding “CGTttgtgctcgATA (CGTTTGTGCTCGATA; chemistry not given here) [Compound 17-1]”, the EGF with PTEC-TERT1 cells (setting [4]) came out at 342 % saline; with PTEC-TERT1 cells (setting [5]), 550 % saline; in the data set with PTEC-TERT1 cells (setting [6]), 693 % saline.

With “CGTttgtgctcgaTAA (CGTTTGTGCTCGATAA; chemistry not given here) [Compound 16-1]”, the values for the EGF with PTEC-TERT1 cells (setting [4]), in the data set with PTEC-TERT1 cells (setting [5]) and in the data set with PTEC-TERT1 cells (setting [6]) were 394 % saline, 509 % saline and 707 % saline, respectively.

As to “CTAtgtgttccTGT (CTATGTGTTCCTGT; chemistry not given here) [Compound 15-1]”, the EGF is listed as 38 % saline in the data set with PTEC-TERT1 cells (setting [4]), 76 % saline with PTEC-TERT1 cells (setting [5]) and 234 % saline in the data set with PTEC-TERT1 cells (setting [6]).

As for “GCCtcccagttccTTT (GCCTCCCAGTTCCTTT; chemistry not given here) [Compound 9-1]”, the EGF in the data set with PTEC-TERT1 cells (setting [4]) is recorded as 220 % saline; in the data set on PTEC-TERT1 cells (setting [5]), 284 % saline; in the data set on PTEC-TERT1 cells (setting [6]), 1593 % saline.

On to “GTCagaaacaaccACC (GTCAGAAACAACCACC; chemistry not given here) [Compound 14-1]”, for which the EGF in data set [1] (day 3, 10 μM) is 139 % saline; in data set [1] (day 3, 100 μM), 220 % saline.

Consider “TAAggcaatcaagGTA (TAAGGCAATCAAGGTA; chemistry not given here) [Compound 5-1]”, for which the EGF with PTEC-TERT1 cells (PTEC-TERT1, Day 3, 11 μM (Table 3)) is recorded as 174 % saline; with PTEC-TERT1 cells (PTEC-TERT1, Day 3, 33 μM (Table 3)) it was 222 % saline; in the data set with PTEC-TERT1 cells (PTEC-TERT1, Day 3, 100 μM (Table 3)), 182 % saline; with PTEC-TERT1 cells (PTEC-TERT1, Day 7, 11 μM (Table 3)) it was 158 % saline; with PTEC-TERT1 cells (PTEC-TERT1, Day 7, 33 μM (Table 3)), 249 % saline; with PTEC-TERT1 cells (PTEC-TERT1, Day 7, 100 μM (Table 3)), 754 % saline. Also, the EGF with PTEC-TERT1 cells (PTEC-TERT1, Day 10, 11 μM (Table 3)) worked out at 54 % saline; in the data set on PTEC-TERT1 cells (PTEC-TERT1, Day 10, 33 μM (Table 3)), 210 % saline; with PTEC-TERT1 cells (PTEC-TERT1, Day 10, 100 μM (Table 3)), 720 % saline.

On to “TGCtcaacatcAAG (TGCTCAACATCAAG; chemistry not given here) [Compound 11-1]”, for which the EGF was 184 % saline in data set [1] (day 3, 10 μM); 458 % saline in data set [1] (day 3, 100 μM); 38 % saline in the data set with PTEC-TERT1 cells (setting [4]); 127 % saline with PTEC-TERT1 cells (setting [5]); 371 % saline in the data set with PTEC-TERT1 cells (setting [6]).

With “TTAcacttgacCCA (TTACACTTGACCCA; chemistry not given here) [Compound 12-1]”, the EGF stood at 19 % saline in the data set with PTEC-TERT1 cells (setting [4]), 27 % saline with PTEC-TERT1 cells (setting [5]) and 71 % saline in the data set with PTEC-TERT1 cells (setting [6]).

Turning to “TTTacacttgaCCC (TTTACACTTGACCC; chemistry not given here) [Compound 13-1]”, the values for the EGF in the data set with PTEC-TERT1 cells (setting [4]), with PTEC-TERT1 cells (setting [5]) and in the data set with PTEC-TERT1 cells (setting [6]) were 27 % saline, 29 % saline and 39 % saline, respectively.
